From ChEMBL document CHEMBL4346705, “(±)-trans-Dihydronarciclasine and (±)-trans-dihydrolycoricidine analogues modified in their ring A: Evaluation of their anticancer activity and a SAR study” (2019)

What was measured:
Assay type in all cases: functional
[1] = tested on: HT-29; experiment: Cytotoxicity against human HT-29 cells assessed as growth inhibition after 48 hrs by sulforhodamine B assay; settings: HT-29, 48 h
[2] = tested on: MCF7; experiment: Cytotoxicity against human MCF7 cells assessed as growth inhibition after 48 hrs by sulforhodamine B assay; settings: MCF7, 48 h
[3] = tested on: SK-MEL-28; experiment: Cytotoxicity against human SK-MEL-28 cells assessed as growth inhibition after 48 hrs by sulforhodamine B assay; settings: SK-MEL-28, 48 h
[4] = tested on: IGROV-1; experiment: Cytotoxicity against human IGROV1 cells assessed as growth inhibition after 48 hrs by sulforhodamine B assay; settings: IGROV-1, 48 h
[5] = tested on: MOLT-4; experiment: Cytotoxicity against human MOLT4 cells assessed as growth inhibition after 48 hrs by sulforhodamine B assay; settings: MOLT-4, 48 h
[6] = tested on: A498; experiment: Cytotoxicity against human A498 cells assessed as growth inhibition after 48 hrs by sulforhodamine B assay; settings: A498, 48 h
[7] = tested on: NCI-H322M; experiment: Cytotoxicity against human NCI-H322M cells assessed as growth inhibition after 48 hrs by sulforhodamine B assay
[8] = tested on: OVCAR-3; experiment: Cytotoxicity against human OVCAR3 cells assessed as growth inhibition after 48 hrs by sulforhodamine B assay; settings: OVCAR-3, 48 h
[9] = tested on: U-251; experiment: Cytotoxicity against human U251 cells assessed as growth inhibition after 48 hrs by sulforhodamine B assay; settings: U-251, 48 h
[10] = tested on: HCC 2998; experiment: Cytotoxicity against human HCC2998 cells assessed as growth inhibition after 48 hrs by sulforhodamine B assay; settings: HCC 2998, 48 h
[11] = tested on: HOP-92; experiment: Cytotoxicity against human HOP92 cells assessed as growth inhibition after 48 hrs by sulforhodamine B assay; settings: HOP-92, 48 h
[12] = tested on: Malme-3M; experiment: Cytotoxicity against human MALME-3M cells assessed as growth inhibition after 48 hrs by sulforhodamine B assay
[13] = tested on: SF-295; experiment: Cytotoxicity against human SF295 cells assessed as growth inhibition after 48 hrs by sulforhodamine B assay; settings: SF-295, 48 h
[14] = tested on: EKVX; experiment: Cytotoxicity against human EKVX cells assessed as growth inhibition after 48 hrs by sulforhodamine B assay
[15] = tested on: CCRF-CEM; experiment: Cytotoxicity against human CCRF-CEM cells assessed as growth inhibition after 48 hrs by sulforhodamine B assay
[16] = tested on: SF-268; experiment: Cytotoxicity against human SF268 cells assessed as growth inhibition after 48 hrs by sulforhodamine B assay; settings: SF-268, 48 h
[17] = tested on: RPMI-8226; experiment: Cytotoxicity against human RPMI8226 cells assessed as growth inhibition after 48 hrs by sulforhodamine B assay; settings: RPMI-8226, 48 h
[18] = tested on: OVCAR-5; experiment: Cytotoxicity against human OVCAR5 cells assessed as growth inhibition after 48 hrs by sulforhodamine B assay; settings: OVCAR-5, 48 h
[19] = tested on: A549; experiment: Cytotoxicity against human A549 cells assessed as growth inhibition after 48 hrs by sulforhodamine B assay; settings: A549, 48 h
[20] = tested on: NCI/ADR-RES; experiment: Cytotoxicity against human NCI-ADR-RES cells assessed as growth inhibition after 48 hrs by sulforhodamine B assay
[21] = tested on: Hs-578T; experiment: Cytotoxicity against human Hs 578T cells assessed as growth inhibition after 48 hrs by sulforhodamine B assay
[22] = tested on: KM12; experiment: Cytotoxicity against human KM12 cells assessed as growth inhibition after 48 hrs by sulforhodamine B assay; settings: KM12, 48 h
[23] = tested on: NCI-H226; experiment: Cytotoxicity against human NCI-H226 cells assessed as growth inhibition after 48 hrs by sulforhodamine B assay; settings: NCI-H226, 48 h
[24] = tested on: ACHN; experiment: Cytotoxicity against human ACHN cells assessed as growth inhibition after 48 hrs by sulforhodamine B assay
[25] = tested on: HL-60(TB); experiment: Cytotoxicity against human HL-60(TB) cells assessed as growth inhibition after 48 hrs by sulforhodamine B assay; settings: HL-60, 48 h
[26] = tested on: K562; experiment: Cytotoxicity against human K562 cells assessed as growth inhibition after 48 hrs by sulforhodamine B assay; settings: K562, 48 h
[27] = tested on: HOP-62; experiment: Cytotoxicity against human HOP62 cells assessed as growth inhibition after 48 hrs by sulforhodamine B assay; settings: HOP-62, 48 h
[28] = tested on: HCT-116; experiment: Cytotoxicity against human HCT116 cells assessed as growth inhibition after 48 hrs by sulforhodamine B assay; settings: HCT-116, 48 h
[29] = tested on: PC-3; experiment: Cytotoxicity against human PC3 cells assessed as growth inhibition after 48 hrs by sulforhodamine B assay; settings: PC-3, 48 h
[30] = tested on: SN12C; experiment: Cytotoxicity against human SN12C cells assessed as growth inhibition after 48 hrs by sulforhodamine B assay
[31] = tested on: SK-MEL-2; experiment: Cytotoxicity against human SK-MEL-2 cells assessed as growth inhibition after 48 hrs by sulforhodamine B assay; settings: SK-MEL-2, 48 h
[32] = tested on: BT-549; experiment: Cytotoxicity against human BT549 cells assessed as growth inhibition after 48 hrs by sulforhodamine B assay; settings: BT-549, 48 h
[33] = tested on: HCT-15; experiment: Cytotoxicity against human HCT15 cells assessed as growth inhibition after 48 hrs by sulforhodamine B assay; settings: HCT-15, 48 h
[34] = read-out: LC50 (the source's name)

SMILES: O=C1NC2C(CC(O)C(O)C2O)c2cc3c(c(O)c21)OCCO3 (racemic)
- GI50 [1]: 299 nM
- LC50 (concentration causing 50% net cell kill) [1]: 96400 nM
- TGI [1]: 1330 nM
- GI50 [2]: 103 nM
- LC50 [2]: > 100000 nM
- TGI [2]: 590 nM
- GI50 [3]: 238 nM
- LC50 (concentration killing 50% of cells) [3]: 29400 nM
- TGI [3]: 890 nM
- GI50 [4]: 343 nM
- LC50 [4]: > 100000 nM
- TGI [4]: 2680 nM
- GI50 [5]: 179 nM
- TGI [5]: 10100 nM
- CC50 [5, 34]: > 100000 nM
- GI50 [6]: 300 nM
- LC50 (concentration killing 50% of cells) [6]: 6860 nM
- TGI [6]: 1170 nM
- GI50 [7]: 105 nM
- TGI [7]: 620 nM
- CC50 [7, 34]: > 100000 nM
- GI50 [8]: 280 nM
- LC50 [8]: > 100000 nM
- TGI [8]: 960 nM
- GI50 [9]: 243 nM
- LC50 [9]: > 100000 nM
- TGI [9]: 14500 nM
- GI50 [10]: 222 nM
- LC50 (concentration killing 50% of cells) [10]: 6310 nM
- TGI [10]: 730 nM
- GI50 [11]: 110 nM
- LC50 [11]: > 100000 nM
- TGI [11]: 1010 nM
- GI50 [12]: 190 nM
- LC50 [12]: 5200 nM
- TGI [12]: 710 nM
- GI50 [13]: 357 nM
- TGI [13]: 2640 nM
- CC50 [13, 34]: > 100000 nM
- GI50 [14]: 257 nM
- TGI [14]: 1270 nM
- CC50 [14, 34]: > 100000 nM
- GI50 [15]: 73.7 nM
- LC50 (concentration giving 50% net cell kill) [15]: > 100000 nM
- TGI [15]: 1830 nM
- GI50 [16]: 260 nM
- LC50 [16]: > 100000 nM
- TGI [16]: 1220 nM
- GI50 [17]: 265 nM
- LC50 [17]: > 100000 nM
- TGI [17]: 1140 nM
- GI50 [18]: 361 nM
- LC50 [18]: > 100000 nM
- TGI [18]: 2860 nM
- GI50 [19]: 355 nM
- TGI [19]: 8530 nM
- CC50 [19, 34]: > 100000 nM
- GI50 [20]: 596 nM
- TGI [20]: 5850 nM
- CC50 [20, 34]: > 100000 nM
- GI50 [21]: 256 nM
- LC50 (concentration killing 50% of cells) [21]: > 100000 nM
- TGI [21]: 940 nM
- GI50 [22]: 187 nM
- LC50 [22]: > 100000 nM
- TGI [22]: 1210 nM
- GI50 [23]: 220 nM
- LC50 [23]: 79800 nM
- TGI [23]: 730 nM
- GI50 [24]: 297 nM
- LC50 (concentration killing 50% of cells) [24]: 7730 nM
- TGI [24]: 1480 nM
- GI50 [25]: 166 nM
- LC50 [25]: > 100000 nM
- TGI [25]: 590 nM
- GI50 [26]: 126 nM
- TGI [26]: 10700 nM
- CC50 [26, 34]: > 100000 nM
- GI50 [27]: 255 nM
- TGI [27]: 910 nM
- CC50 [27, 34]: 7270 nM
- GI50 [28]: 77.7 nM
- LC50 [28]: > 100000 nM
- TGI [28]: 1310 nM
- GI50 [29]: 299 nM
- LC50 [29]: > 100000 nM
- TGI [29]: 2140 nM
- GI50 [30]: 141 nM
- TGI [30]: 890 nM
- CC50 [30, 34]: > 100000 nM
- GI50 [31]: 245 nM
- TGI [31]: 930 nM
- GI50 [32]: 260 nM
- LC50 (concentration killing 50% of cells) [32]: > 100000 nM
- TGI [32]: 870 nM
- GI50 [33]: 280 nM
- LC50 (50% lethal concentration) [33]: > 100000 nM
- TGI [33]: 1910 nM
